Source: ChEMBL document CHEMBL6103548, “Recent advances in screening methods enabling the discovery of novel anti-hepatitis B virus drug candidates” (Eur J Med Chem, 2025)
Each block holds one compound with its values, some of them ahead of it.

Columns and labels:
HepG2 [1] = experiment: Cytotoxicity against human HepG2 cells assessed as reduction in cell viability incubated for 24 hrs by CCK-8 assay; type: functional
Hepatitis B virus [2] = experiment: Antiviral activity against HBV infected in human HepG2 cells assessed as reduction in viral DNA replication; type: functional, organism-based
[3] = Cytotoxicity against human HepDE19 cells; type: toxicity, cell-based
[4] = Antiviral activity against HBV infected in SRluc-HBc6 cells; type: functional, cell-based; conditions: Hepatitis B virus
[5] = Cytotoxicity against SRluc-HBc6 cells (unknown origin); type: functional
[6] = Cytotoxicity against human HePAD38 cells assessed as reduction in cell viability by XTT assay; type: functional
Hepatitis B virus [7] = experiment: Antiviral activity against Hepatitis B virus infected in human HePAD38 cells assessed as inhibition of viral DNA replication by qPCR analysis; type: functional, organism-based
Hepatitis B virus [8] = experiment: Antiviral activity against HBV infected in human HepG2-hNTCP cells assessed as inhibition of HBsAg formation; type: functional, organism-based
HepG2 [9] = experiment: Cytotoxicity against human HepG2 cells assessed as reduction in cell growth; type: functional
HepG2 [10] = experiment: Cytotoxicity against human HepG2 cells by XTT assay; type: functional
Hepatitis B virus [11] = experiment: Antiviral activity against HBV infected in human HePAD38 cells assessed as reduction in intracellular core HBV DNA replication by Southern blot analysis; type: functional, organism-based
[12] = Cytotoxicity against human HePAD38 cells assessed as reduction in cell viability incubated for 72 hrs by MTT assay; type: functional
Hepatitis B virus [13] = experiment: Antiviral activity against Hepatitis B virus infected in HepDE19 cells assessed as inhibition of viral replication; type: functional, organism-based
Hepatitis B virus [14] = experiment: Antiviral activity against Hepatitis B virus assessed as inhibition of HbsAg level
Hepatitis B virus [15] = experiment: Antiviral activity against Hepatitis B virus assessed as inhibition of HbeAg level

Compound: Cc1nc2cc(NC(=O)c3ccc(S(=O)(=O)N(C)Cc4ccccc4)cc3)ccc2s1
CC50 [3]: 2.57 µM

Compound: CC1=C[C@@H]2C(=O)[C@]3(C=C(C)[C@H](O)[C@@]3(O)[C@@H]1O)[C@H](C)C[C@@H]1[C@H]2C1(C)C
EC50 [4]: 8.9 µM
CC50 [5]: > 100 µM

Compound: Cc1cc(C2CCCCC2)n(O)c(=O)c1 [CICLOPIROX]
EC50 (Hepatitis B virus [7]): 0.88 µM
CC50 (HepG2 [10]): > 10 µM

Compound: NC(=O)c1ccc(N)nc1 [6-AMINONICOTINAMIDE]
EC50 (Hepatitis B virus [11]): 23.9 µM
CC50 [12]: > 500 µM

Compound: O=C(CN(c1cc(C(F)(F)F)ccc1Cl)S(=O)(=O)c1ccccc1)NCc1ccncc1
CC50 [3]: > 50 µM

Compound: CC(=O)Oc1ccccc1C(=O)Nc1ncc([N+](=O)[O-])s1 [NITAZOXANIDE]
CC50 (HepG2 [1]): 57 µM
EC50 (Hepatitis B virus [2]): < 10 µM

Compound: C/C=C/C[C@@H](C)[C@@H](O)[C@H]1C(=O)N[C@@H](CC)C(=O)N(C)CC(=O)N(C)[C@@H](CC(C)C)C(=O)N[C@@H](C(C)C)C(=O)N(C)[C@@H](CC(C)C)C(=O)N[C@@H](C)C(=O)N[C@H](C)C(=O)N(C)[C@@H](CC(C)C)C(=O)N(C)[C@@H](CC(C)C)C(=O)N(C)[C@@H](C(C)C)C(=O)N1C [CYCLOSPORINE]
IC50 (Hepatitis B virus [14]): 0.372 µM
IC50 (Hepatitis B virus [15]): 0.311 µM

Now from value to compound, other results behind:

EC50 (Hepatitis B virus [2]): 100 µM
Compound: O=c1oc2ccccc2c(O)c1Cc1c(O)c2ccccc2oc1=O [DICUMAROL]
CC50 (HepG2 [1]): > 800 µM

EC50 (Hepatitis B virus [7]): 3.6 µM
Compound: Cc1c(C(=O)Nc2ccccc2)sc(N)c1C(N)=O
CC50 [6]: > 300 µM

EC50 (Hepatitis B virus [8]): 35 µM
Compound: CCCCC1=NC2(CCCC2)C(=O)N1Cc1ccc(-c2ccccc2-c2nnn[nH]2)cc1 [IRBESARTAN]
CC50 (HepG2 [9]): 287 µM

EC50 [4]: 2.3 µM
Compound: CCOC(=O)c1c(CSc2ccccc2)n(C)c2cc(Br)c(O)c(CN(C)C)c12 [UMIFENOVIR]
CC50 [5]: 58.4 µM

EC50 (Hepatitis B virus [13]): 0.1 µM
Compound: O=C(O)C1CC(OCCOc2ccc(-c3cc(=O)c4cccc(Cl)c4o3)cc2)C1 (configuration not stated)
CC50 [3]: 0.2 µM
